From patent US20120040951A1, “HETEROARYL COMPOUNDS USEFUL AS RAF KINASE INHIBITORS” (priority 2008, published 2012) come the findings set out here.

Bounds are passed on as bounds.

The subject of the assay is phospho-ERK in melanoma derived WM-266-4 cells. The experiment in a line: Mechanistic cellular assay for Raf kinase activity (phospho-ERK, Bio-Plex). To be noted: Homo sapiens, treated 1-2 hr at 37° C., serum free medium, read-out: pERK EC50. In kind it is cell-based. The text has this: (2) Mechanistic Cellular Assay for Raf Kinase Activity
The following method was utilized for quantifying the amount of phospho-ERK in melanoma derived WM-266-4 cells (one allele each of wild type BRaf and mutant BRaf (V600D) as an indicator of Raf kinase activity in cells treated with various kinase inhibitors.
(1) Detached adhered WM-266-4 cells from flask using 0.25% Trypsin. Resuspended cells in growth media (90% RPMI 1640, 10% FBS) and determine cell density.
(2) Seeded cells @ 10,000 cells/well in 96-well (flat bottom) tissue culture plates (36,000 cells/cm^2). Added growth media to a final volume of 200 uL/well and incubated overnight at 37° C.
(1) Prepared compound dilutions (1000× in DMSO) as follows. Starting with a stock of 5 mM compound in DMSO, diluted serially 3-fold in DMSO for a total of eight concentrations (5 mM, 1.67 mM, 0.556 mM, 0.185 mM, 0.062 mM, 0.021 mM, 0.007 mM, 0.002 mM).
(2) Prepared compound-containing media by adding 1 mL treatment media (100% RPMI 1640 without FBS) to 1 μL of compound dilution (from step 3).
(3) Removed plates (from step 2) from incubator. Aspirated media and replace with 150 μL compound-containing media. Incubate for 1-2 hr at 37° C.
(4) Removed plates (from step 5) from incubator and treated each as follows: aspirated compound-containing media and replaced with 300 μL ice-cold 1×PBS, aspirated PBS and replaced with 45 μL lysis buffer (Biorad Bio-Plex lysis buffer containing 0.4% v/v lysis buff. Factor 1, 0.2% v/v lysis buff. Factor 2, and PMSF to 2 mM final concentration), and then placed plate on ice until all plates were treated.
(5) After all plates were processed (step 6), placed plates on an orbital shaker and shook at room temperature for at least 15 min.
(6) Finally, removed plates from shaker, and transfered 40 μL/well of lysate from each to new corresponding 96-well V-bottom plates. At this point, samples may be frozen and stored @−80 C.°.
(1) Thaw (if necessary) plates (from step 8) and added 40 μL of Phospho-Protein Assay Buffer to each 40 μL lysate for a 1:1 dilution.
(2) Prepared phospho-ERK1,2 Bioplex beads by diluting 1:50 with Bioplex Wash Buffer (mixing 49 μL Wash Buffer with 1 μL of phospho-ERK1,2 Bioplex beads for each sample to be analyzed). Protected from light by wrapping tube in aluminum foil and kept at room temperature.
(3) Prepared Filter Plate by adding 100 μL/well Bioplex Wash Buffer and removed by vacuum filtration.
(4) Add 50 μL of bead solution (from step 10) to each well of a prepared Filter Plate (from step 11) and vacuum filter. Wash/filter 2× with 100 μL/well Wash Buffer.
(5) Added 50 μL of each lysate to appropriate well of the Filter Plate (from step 12). For this and all subsequent plate incubation steps, placed plate on an inverted plate cover (reduces background), and wrapped in aluminum foil (to protect from light). Shook overnight at room temperature. Included positive (control lysate) and negative (lysis buffer) controls.
(1) Prepared detection antibody (phospho-ERK1,2 Ab) by diluting 1:25 with Detection Antibody Dilution Buffer Buffer (mixing 24 μL Detection Antibody Dilution Buffer with 1 μL of phospho-ERK1,2 Ab for each sample to be analyzed).
(2) Removed plate (from step 13) from shaker and vacuum filter. Washed/filter plate 3× with 100 μL/well Wash Buffer. Added 25 μL of diluted antibody to each well. Incubated on shaker at RT for 30-45 min.
(3) Prepared streptavidin-PE by diluting 1:100 with Wash Buffer (mixing 49.5 μL Wash Buffer with 0.5 μL of 100× streptavidin-PE for each sample to be analyzed). Protected from light.
(4) Removed plate (from step 15) from shaker and vacuum filter. Washed/filter plate 3× with 100 μL/well Wash Buffer. Add 50 μL of diluted streptavidin-PE solution (from step 16) to each sample well. Incubated on shaker for 10-20 min.
(5) Removed plate from shaker and vacuum filter. Wash/filter plate 3× with 100 μL/well Bead Resuspension Buffer. After last wash resuspended beads in 125 μL Bead Resuspension Buffer. […]
Broadly, the EC50 is the concentration needed to bring the measured effect to its halfway point. Regarding `CC(NC(=O)c1cnn2cc(-c3cncnc3)ccc12)c1ncc(C(=O)Nc2cc(C(F)(F)F)c(Cl)cn2)s1` (stereo not drawn) [Example 328], the EC50 is no more than 100 nM.
The value for `CCn1c(C(=O)N[C@H](C)c2ncc(C(=O)Nc3cc(C(F)(F)F)c(Cl)cn3)s2)cnc1N` [Example 149] was no more than 100 nM; that for `CC(NC(=O)c1cc2c(cn1)ncn2C)c1cnc(Nc2cc(C(F)(F)F)ccn2)s1` (stereo not drawn) [Example 251] was 1000 to 10000 nM; that for `CC(NC(=O)c1cc2c(cn1)ncn2CCN)c1cnc(Nc2ccc(C(F)(F)F)cc2)s1` (stereo not drawn) [Example 23] was 100 to 1000 nM.
The same measure for `C[C@@H](NC(=O)c1cc2c(cn1)ncn2[C@@H]1CCN(C(=O)OC(C)(C)C)C1)c1cnc(Nc2ccc(C(F)(F)F)cc2)s1` [Example 22]: 100 to 1000 nM; for `CC(NC(=O)c1cn2c(N)cnc2cn1)c1ncc(Nc2ccc(C(F)(F)F)cc2)s1` (stereo not drawn) [Example 302]: 100 to 1000 nM; for `CC(NC(=O)c1cc2c(cn1)ncn2CCS(C)(=O)=O)c1cnc(Nc2ccc(C(F)(F)F)cc2)s1` (stereo not drawn) [Example 184]: 100 to 1000 nM.
With `Cc1c(C(=O)N[C@H](C)c2ncc(C(=O)Nc3cc(C(F)(F)F)c(Cl)cn3)s2)cnn1-c1ccccc1` [Example 114], the EC50 lay in the range of 1000 to 10000 nM.
The value for `CC(NC(=O)c1cc2c(cn1)ncn2C)c1cnc(Nc2ccc(Cl)cc2)cn1` (stereo not drawn) [Example 255] was 100 to 1000 nM; that for `Cc1[nH]ncc1C(=O)N[C@H](C)c1ncc(C(=O)Nc2cc(C(F)(F)F)c(Cl)cn2)s1` [Example 113] was 100 to 1000 nM; that for `CC(NC(=O)c1cc2c(cn1)ncn2C)c1cnc(Nc2cc(Cl)ncn2)s1` (stereo not drawn) [Example 260] was 1000 to 10000 nM.
The same measure for `CC(NC(=O)c1cc2scnc2cn1)c1cnc(Nc2ccc(C(F)(F)F)cc2)s1` (stereo not drawn) [Example 208]: no more than 100 nM.
Regarding `CC(NC(=O)c1cccc(-n2ccnc2)c1)c1ncc(C(=O)Nc2cc(C(F)(F)F)c(Cl)cn2)s1` (stereo not drawn) [Example 48], the EC50 was 100 to 1000 nM.
The same measure for `C[C@@H](NC(=O)c1cnc2n1CCN2C)c1ncc(C(=O)Nc2cc(C(F)(F)F)c(Cl)cn2)s1` [Example 172]: 100 to 1000 nM.
The value for `C[C@@H](NC(=O)c1cn(C)cn1)c1ncc(C(=O)Nc2cc(C(F)(F)F)c(Cl)cn2)s1` [Example 143] was 1000 to 10000 nM.
The value for `C[C@@H](NC(=O)c1ccc2nc(N)sc2c1)c1ncc(C(=O)Nc2cc(C(F)(F)F)c(Cl)cn2)s1` [Example 59] was no more than 100 nM.
Regarding `C[C@@H](NC(=O)c1ccc2c(c1)OCCO2)c1ncc(C(=O)Nc2cc(C(F)(F)F)c(Cl)cn2)s1` [Example 70], the EC50 was in the range of 100 to 1000 nM.
The same measure for `CCn1c(C(=O)N[C@H](C)c2ncc(C(=O)Nc3cc(C(F)(F)F)c(Cl)cn3)s2)cnc1C` [Example 151]: no more than 100 nM; for `CC(NC(=O)c1cccc(N2CCOCC2)c1)c1ncc(C(=O)Nc2cc(C(F)(F)F)c(Cl)cn2)s1` (stereo not drawn) [Example 45]: 1000 to 10000 nM; for `CC(NC(=O)c1cc2c(cn1)ncn2C)c1cnc(Nc2ccc(C3COC3)cc2)cn1` (stereo not drawn) [Example 281]: 1000 to 10000 nM.
The same measure for `CC(NC(=O)c1cc2c(cn1)ncn2C)c1cnc(Nc2cc(C(C)(C)C(F)(F)F)ccc2F)s1` (stereo not drawn) [Example 274]: no more than 100 nM; for `CCc1nc2cnc(C(=O)NC(C)c3ncc(Nc4ccc(C(F)(F)F)cc4)s3)cn2c1N` (stereo not drawn) [Example 307]: 1000 to 10000 nM; for `C[C@@H](NC(=O)c1cnc(N)s1)c1ncc(C(=O)Nc2cc(C(F)(F)F)c(Cl)cn2)s1` [Example 102]: no more than 100 nM.
As to `C[C@@H](NC(=O)c1cc2cn(C)nc2cn1)c1cnc(Nc2ccc(C(F)(F)F)cc2)s1` [Example 205], the EC50 is no more than 100 nM.
The value for `CC(NC(=O)c1cc2c(cn1)ncn2C1CCN(C)CC1)c1cnc(Nc2ccc(C(F)(F)F)cc2)s1` (stereo not drawn) [Example 11] was 100 to 1000 nM.
The value for `C[C@@H](NC(=O)c1ccc2nccnc2c1)c1ncc(C(=O)Nc2cc(C(F)(F)F)c(Cl)cn2)s1` [Example 63] was no more than 100 nM; that for `CC(NC(=O)c1cn2c(Br)cnc2cn1)c1cnc(Nc2ccc(C(F)(F)F)cc2)s1` (stereo not drawn) [Example 297] was no more than 100 nM; that for `CC(NC(=O)c1cc2c(cn1)ncn2C)c1cnc(Nc2ccc(C(F)(F)F)nc2)s1` (stereo not drawn) [Example 246] was 100 to 1000 nM.
The same measure for `CC(NC(=O)c1cc2c(cn1)ncn2C(C)C)c1cnc(Nc2ccc(C(F)(F)F)cc2)s1` (stereo not drawn) [Example 12]: no more than 100 nM.
Regarding `CC(NC(=O)c1cc2c(cn1)ncn2C(C)(C)C)c1cnc(Nc2ccc(C(F)(F)F)cc2)s1` (stereo not drawn) [Example 13], the EC50 was no more than 100 nM.
The value for `C[C@@H](NC(=O)c1cnc2n1CCC(=O)N2)c1ncc(C(=O)Nc2cc(C(F)(F)F)c(Cl)cn2)s1` [Example 173] was no more than 100 nM; that for `CC(NC(=O)c1cc2c(cn1)ncn2CCNC(=O)OC(C)(C)C)c1cnc(Nc2ccc(C(F)(F)F)cc2)s1` (stereo not drawn) [Example 21] was 100 to 1000 nM.
In the case of `CC(NC(=O)c1cc2c(cn1)ncn2C1CCCC1)c1cnc(Nc2ccc(C(F)(F)F)cc2)s1` (stereo not drawn) [Example 17], the EC50 is no more than 100 nM.
The same measure for `C[C@@H](NC(=O)c1cnc2n1CCCN2)c1ncc(C(=O)Nc2cc(C(F)(F)F)c(Cl)cn2)s1` [Example 166]: no more than 100 nM.
With `Cc1ncc(C(=O)NC(C)c2ncc(C(=O)Nc3cc(C(F)(F)F)c(Cl)cn3)s2)n1-c1ccncc1` (stereo not drawn) [Example 159], the EC50 is no more than 100 nM.
With `CC(NC(=O)c1cc2cnn(C)c2cn1)c1cnc(Nc2ccc(C(F)(F)F)cc2)s1` (stereo not drawn) [Example 204], the EC50 lay in the range of 1000 to 10000 nM.
The value for `CC(NC(=O)c1cc2c(cn1)ncn2C)c1cnc(Nc2ccc(Cl)c(S(=O)(=O)C(F)(F)F)c2)cn1` (stereo not drawn) [Example 269] was no more than 100 nM; that for `Cc1ncc(C(=O)N[C@H](C)c2ncc(C(=O)Nc3cc(C(F)(F)F)c(Cl)cn3)s2)n1C` [Example 146] was no more than 100 nM; that for `C[C@@H](NC(=O)c1cc2c(cn1)ncn2C)c1cnc(Nc2ccc(Cl)c(C(F)(F)F)c2)cn1` (single isomer, unassigned) [Example 236] was no more than 100 nM.
The value for `CCn1cnc2cnc(C(=O)N[C@H](C)c3cnc(Nc4ccc(C(F)(F)F)cc4)s3)cc21` [Example 20] was no more than 100 nM.
The same measure for `CC(NC(=O)c1cc2c(cn1)ncn2C)c1cnc(Nc2cccc(C(F)(F)F)c2)s1` (stereo not drawn) [Example 178]: 100 to 1000 nM.
Take `C[C@@H](NC(=O)c1cnn(-c2ccccc2)c1)c1ncc(C(=O)Nc2cc(C(F)(F)F)c(Cl)cn2)s1` [Example 117]: the EC50 lay within 1000 to 10000 nM.
The same measure for `C[C@@H](NC(=O)c1cc2c(cn1)ncn2C1CN(S(=O)(=O)CC(F)(F)F)C1)c1cnc(Nc2ccc(C(F)(F)F)cc2)cn1` [Example 344]: 100 to 1000 nM.
The value for `Cc1ccc2cc(C(=O)N[C@H](C)c3ncc(C(=O)Nc4cc(C(F)(F)F)c(Cl)cn4)s3)ccc2n1` [Example 60] was 100 to 1000 nM.
The value for `CC(NC(=O)c1cc2cn(C)nc2cn1)c1cnc(Nc2ccc(C(F)(F)F)cc2)cn1` (stereo not drawn) [Example 206] was 100 to 1000 nM; that for `CNc1ncc(C(=O)N[C@H](C)c2ncc(C(=O)Nc3cc(C(F)(F)F)c(Cl)cn3)s2)n1C` [Example 160] was 1000 to 10000 nM; that for `COc1cc(-c2ccc3c(C(=O)NC(C)c4ncc(C(=O)Nc5cc(C(F)(F)F)c(Cl)cn5)s4)cnn3c2)ccn1` (stereo not drawn) [Example 330] was 100 to 1000 nM.
On to `CCN1CC(n2cnc3cnc(C(=O)NC(C)c4cnc(Nc5ccc(Cl)c(C(F)(F)F)c5)cn4)cc32)C1` (stereo not drawn) [Example 235], for which the EC50 was in the range of 100 to 1000 nM.
